Data set [1] can be described thus: H2S absorption by iron oxalate at low concentrations of H2S, GGT analysis (Example 3). To be noted: low H2S concentration, 200 mg iron oxalate in 15 ml mud, 1.5 ml solution D. How it is done:
Measurements at low concentrations of H2S were also carried out.
From this mixture a new sample of 1 ml mud was taken out with a syringe and mixed with 20 ml of water and analysed in GGT (Garret Gas Train) whereby the mixture was stirred with a magnetic stirrer.

The nature of data set [2]: H2S absorption by iron oxalate in oil based mud (interdrill 1.62), GGT analysis (Example 2). To be noted: 400 mg iron oxalate in 15 ml interdrill 1.62 oil based mud, water phase pH 12.5, 1.5 ml solution D. How it is done:
In A, B and C iron oxalate was added.
The jar containing the mixture was then shaken. From this mixture a new sample of 1 ml mud was taken out with a syringe. This new sample consisting of 1 ml mud was mixed with 20 ml of water and further analysed in GGT (Garret Gas Train) whereby the mixture was stirred with a magnetic stirrer.
The mud which was used in example 2 was of the type interdrill 1.62 (density of the mud), wherein the pH value in the water phase is 12.5.

Consider `O=C([O-])C(=O)[O-].[Fe+2]` [iron oxalate, iron(II) oxalate], for which the “Amount of remaining H2S in the mud sample measured by GGT analysis” value stood at 8.5 ppm in data set [1] (ageing 1 hour); 0 ppm in data set [1] (ageing 18 hours); 0 ppm in data set [1] (ageing 25 hours); 51 ppm in data set [2] (ageing 17 hours); 34 ppm in data set [2] (ageing 40 hours); 57 ppm in data set [2] (ageing 64 hours).
